From patent publication US20230017045A1, “PYRIDINE AND PYRIMIDINE CARBOXYLATE HERBICIDES AND METHODS OF USE THEREOF” (Dow AgroSciences LLC, priority 2017, published 2023)
Read-outs that look alike come from different tables or passages of the source.

Test system: test plant species
Test: Post-emergent herbicidal activity test (greenhouse, foliar spray, visual growth reduction)
Type: in vivo
Details: post-emergence, 336 h, 140 g ai/ha
Procedure, shortened: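 Visual percent injury (0-100) rated 14 d after treatment, relative to nontreated and solvent-blank plants. Test plants at first or second true leaf stage received an overhead track-sprayer application at 187 L/ha. Compounds were formulated in aqueous acetone/DMSO carrier containing crop oil concentrate and X-77 surfactant.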

[1] = ALOMY: blackgrass (Alopecurus myosuroides), 14 days after application, read-out: Visual Growth Reduction (%) 14 Days After Application, ALOMY
[2] = AMARE: redroot pigweed (Amaranthus retroflexus), 14 days after application, read-out: Visual Growth Reduction (%) 14 Days After Application, AMARE
[3] = AVEFA: wild oat (Avena fatua), 14 days after application, read-out: Visual Growth Reduction (%) 14 Days After Application, AVEFA
[4] = CHEAL: lambsquarters (Chenopodium album), 14 days after application, read-out: Visual Growth Reduction (%) 14 Days After Application, CHEAL
[5] = CIRAR: canada thistle (Cirsium arvense), 14 days after application, read-out: Visual Growth Reduction (%) 14 Days After Application, CIRAR
[6] = CYPES: yellow nutsedge (Cyperus esculentus), 14 days after application, read-out: Visual Growth Reduction (%) 14 Days After Application, CYPES
[7] = ECHCG: barnyardgrass (Echinochloa crus-galli), 14 days after application, read-out: Visual Growth Reduction (%) 14 Days After Application, ECHCG
[8] = IPOHE: ivy-leaf morning glory (Ipomoea hederacea), 14 days after application, read-out: Visual Growth Reduction (%) 14 Days After Application, IPOHE
[9] = KCHSC: kochia (Bassia scoparia), 14 days after application, read-out: Visual Growth Reduction (%) 14 Days After Application, KCHSC
[10] = ORYSA: rice (Oryza sativa), 14 days after application, read-out: Visual Growth Reduction (%) 14 Days After Application, ORYSA
[11] = SETFA: giant foxtail (Setaria faberi), 14 days after application, read-out: Visual Growth Reduction (%) 14 Days After Application, SETFA
[12] = SORVU: grain sorghum (Sorghum vulgare), 14 days after application, read-out: Visual Growth Reduction (%) 14 Days After Application, SORVU
[13] = STEME: common chickweed (Stellaria media), 14 days after application, read-out: Visual Growth Reduction (%) 14 Days After Application, STEME
[14] = TRZAS: wheat, spring (Triticum aestivum), 14 days after application, read-out: Visual Growth Reduction (%) 14 Days After Application, TRZAS
[15] = blackgrass (Alopecurus myosuroides), 14 Days After Application, read-out: Visual Growth Reduction (%) ALOMY
[16] = canada thistle (Cirsium arvense), 14 Days After Application, read-out: Visual Growth Reduction (%) CIRAR
[17] = crabgrass (Digitaria sanguinalis), 14 Days After Application, read-out: Visual Growth Reduction (%) DIGSA
[18] = lambsquarters (Chenopodium album), 14 Days After Application, read-out: Visual Growth Reduction (%) CHEAL
[19] = redroot pigweed (Amaranthus retroflexus), 14 Days After Application, read-out: Visual Growth Reduction (%) AMARE
[20] = wild oat (Avena fatua), 14 Days After Application, read-out: Visual Growth Reduction (%) AVEFA
[21] = yellow nutsedge (Cyperus esculentus), 14 Days After Application, read-out: Visual Growth Reduction (%) CYPES
[22] = DIGSA: crabgrass (Digitaria sanguinalis), 14 days after application, read-out: Visual Growth Reduction (%) 14 Days After Application, DIGSA

SMILES	pest or weed control at 140 g/ha [1]	pest or weed control at 140 g/ha [2]	pest or weed control at 140 g/ha [3]	pest or weed control at 140 g/ha [4]	pest or weed control at 140 g/ha [5]	pest or weed control at 140 g/ha [6]	pest or weed control at 140 g/ha [7]	pest or weed control at 140 g/ha [8]	pest or weed control at 140 g/ha [9]	pest or weed control at 140 g/ha [10]	pest or weed control at 140 g/ha [11]	pest or weed control at 140 g/ha [12]	pest or weed control at 140 g/ha [13]	pest or weed control at 140 g/ha [14]	pest or weed control at 140 g/ha [15]	pest or weed control at 140 g/ha [16]	pest or weed control at 140 g/ha [17]	pest or weed control at 140 g/ha [18]	pest or weed control at 140 g/ha [19]	pest or weed control at 140 g/ha [20]	other results
COC(=O)c1nc(-c2ccc(C(F)(F)F)nc2F)ccc1Cl [F167, Methyl 5-chloro-2′-fluoro-6′-(trifluoromethyl)-[2,3′-bipyridine]-6-carboxylate]	0 to 29%	60 to 74%	0 to 29%	75 to 84%	0 to 29%	0 to 29%	0 to 29%	60 to 74%	30 to 44%	0 to 29%	60 to 74%	75 to 84%	0 to 29%	0 to 29%	–	–	–	–	–	–	–
COC(=O)c1nc(-c2cc(F)c(Cl)c(OC)c2)ccc1Cl [F278, Methyl 3-chloro-6-(4-chloro-3-fluoro-5-methoxyphenyl) picolinate]	–	–	–	–	–	–	0 to 29%	0 to 29%	0 to 29%	0 to 29%	0 to 29%	0 to 29%	0 to 29%	0 to 29%	0 to 29%	0 to 29%	0 to 29%	0 to 29%	0 to 29%	0 to 29%	pest or weed control at 140 g/ha [21]: 0 to 29%
COC(=O)c1nc(-c2ccc3c(c2OC)OC(F)(F)O3)c(F)cc1Cl [F235, Methyl 3-chloro-6-(2,2-difluoro-4-methoxybenzo[d][1,3]dioxol-5-yl)-5-fluoropicolinate]	–	–	–	–	–	–	95 to 100%	95 to 100%	95 to 100%	45 to 59%	95 to 100%	95 to 100%	85 to 94%	95 to 100%	60 to 74%	95 to 100%	95 to 100%	95 to 100%	95 to 100%	95 to 100%	pest or weed control at 140 g/ha [21]: 0 to 29%
COC(=O)c1nc(-c2ccc(C(F)(F)F)nc2)c(O)cc1Cl [F87, methyl 5-chloro-3-hydroxy-6′-(trifluoromethyl)-[2,3′-bipyridine]-6-carboxylate]	0 to 29%	0 to 29%	0 to 29%	0 to 29%	0 to 29%	0 to 29%	0 to 29%	0 to 29%	0 to 29%	0 to 29%	0 to 29%	0 to 29%	0 to 29%	0 to 29%	–	–	–	–	–	–	pest or weed control at 140 g/ha [22]: 0 to 29%
COC(=O)c1nc(-c2cc3c(cc2Cl)OCO3)c(Cl)cc1Cl [F155, Methyl 3,5-dichloro-6-(6-chlorobenzo[d] [1,3]dioxol-5-yl)picolinate]	0 to 29%	60 to 74%	0 to 29%	75 to 84%	0 to 29%	0 to 29%	0 to 29%	0 to 29%	0 to 29%	0 to 29%	0 to 29%	0 to 29%	0 to 29%	0 to 29%	–	–	–	–	–	–	pest or weed control at 140 g/ha [22]: 0 to 29%
